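1) Cells in 96-well plates. 2) Compound, 48 h, 5 concentrations. 3) Linear interpolation between surrounding doses. 4) Unreached endpoint = highest concentration. TGI: total growth inhibition.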
Experiments:
Test in all cases: inhibition of tumour cell growth, NCI panel, 48 h
DU-145 prostate = test system: DU-145 prostate
NCI/ADR-RES ovarian = test system: NCI/ADR-RES ovarian
EKVX NSCLC = test system: EKVX NSCLC
LOX IMVI melanoma = test system: LOX IMVI melanoma
SF-295 CNS = test system: SF-295 CNS
SF-539 CNS = test system: SF-539 CNS
MDA-N = test system: MDA-N
HCT-15 colon = test system: HCT-15 colon
A498 renal = test system: A498 renal
ACHN renal = test system: ACHN renal
SNB-19 CNS = test system: SNB-19 CNS
MOLT-4 leukemia = test system: MOLT-4 leukemia
SK-OV-3 ovarian = test system: SK-OV-3 ovarian
SNB-75 CNS = test system: SNB-75 CNS
SN12C renal = test system: SN12C renal
BT-549 breast = test system: BT-549 breast
OVCAR-8 ovarian = test system: OVCAR-8 ovarian
OVCAR-5 ovarian = test system: OVCAR-5 ovarian
SK-MEL-28 melanoma = test system: SK-MEL-28 melanoma
NCI-H226 lung = test system: NCI-H226 lung
UACC-257 melanoma = test system: UACC-257 melanoma
SF-268 CNS = test system: SF-268 CNS
OVCAR-3 ovarian = test system: OVCAR-3 ovarian
COLO 205 colon = test system: COLO 205 colon
MDA-MB-231 breast = test system: MDA-MB-231 breast
M14 melanoma = test system: M14 melanoma
MALME-3M melanoma = test system: MALME-3M melanoma
TK-10 renal = test system: TK-10 renal
K-562 leukemia = test system: K-562 leukemia
A549 NSCLC = test system: A549 NSCLC
UO-31 renal = test system: UO-31 renal
U251 CNS = test system: U251 CNS
NCI-H522 lung = test system: NCI-H522 lung
KM12 colon = test system: KM12 colon
HL-60(TB) leukemia = test system: HL-60(TB) leukemia
PC-3 prostate = test system: PC-3 prostate
HCT-116 colon = test system: HCT-116 colon
IGROV1 ovarian = test system: IGROV1 ovarian
HCC-2998 colon = test system: HCC-2998 colon
CAKI-1 renal = test system: CAKI-1 renal
CCRF-CEM leukemia = test system: CCRF-CEM leukemia
MDA-MB-435 = test system: MDA-MB-435
786-0 renal = test system: 786-0 renal
OVCAR-4 ovarian = test system: OVCAR-4 ovarian
NCI-H23 lung = test system: NCI-H23 lung
HOP-92 NSCLC = test system: HOP-92 NSCLC
SR leukemia = test system: SR leukemia
UACC-62 melanoma = test system: UACC-62 melanoma
SK-MEL-5 melanoma = test system: SK-MEL-5 melanoma
SK-MEL-2 melanoma = test system: SK-MEL-2 melanoma
MCF7 breast = test system: MCF7 breast
RPMI-8226 leukemia = test system: RPMI-8226 leukemia
SW-620 colon = test system: SW-620 colon
NCI-H460 lung = test system: NCI-H460 lung
HT29 colon = test system: HT29 colon
T-47D breast = test system: T-47D breast
RXF 393 renal = test system: RXF 393 renal
HOP-62 NSCLC = test system: HOP-62 NSCLC
HS 578T breast = test system: HS 578T breast

SMILES: COc1ccc(SCc2cc(OCc3ccccc3)c(OCc3ccccc3)c(OCc3ccccc3)c2)cc1
- TGI (DU-145 prostate): 3.13 µM
- TGI (NCI/ADR-RES ovarian): 3.38 µM
- TGI (EKVX NSCLC): 4.37 µM
- TGI (LOX IMVI melanoma): 2.91 µM
- TGI (SF-295 CNS): 3.58 µM
- TGI (SF-539 CNS): 3.45 µM
- TGI (MDA-N): 3.29 µM
- TGI (HCT-15 colon): 3.47 µM
- TGI (A498 renal): 3.49 µM
- TGI (ACHN renal): 3.1 µM
- TGI (SNB-19 CNS): 3.19 µM
- TGI (MOLT-4 leukemia): 3.3 µM
- TGI (SK-OV-3 ovarian): 3.18 µM
- TGI (SNB-75 CNS): 3 µM
- TGI (SN12C renal): 3.49 µM
- TGI (BT-549 breast): 4.59 µM
- TGI (OVCAR-8 ovarian): 3.59 µM
- TGI (OVCAR-5 ovarian): 3.4 µM
- TGI (SK-MEL-28 melanoma): 3.52 µM
- TGI (NCI-H226 lung): 3.73 µM
- TGI (UACC-257 melanoma): 3.09 µM
- TGI (SF-268 CNS): 3.42 µM
- TGI (OVCAR-3 ovarian): 3.04 µM
- TGI (COLO 205 colon): 8.21 µM
- TGI (MDA-MB-231 breast): 2.7 µM
- TGI (M14 melanoma): 3.57 µM
- TGI (MALME-3M melanoma): 3.37 µM
- TGI (TK-10 renal): 3.32 µM
- TGI (K-562 leukemia): 2.62 µM
- TGI (A549 NSCLC): 3.71 µM
- TGI (UO-31 renal): 3.18 µM
- TGI (U251 CNS): 3.22 µM
- TGI (NCI-H522 lung): 3.37 µM
- TGI (KM12 colon): 3.16 µM
- TGI (HL-60(TB) leukemia): 3.44 µM
- TGI (PC-3 prostate): 3.37 µM
- TGI (HCT-116 colon): 3.14 µM
- TGI (IGROV1 ovarian): 3.34 µM
- TGI (HCC-2998 colon): 2.85 µM
- TGI (CAKI-1 renal): 3.02 µM
- TGI (CCRF-CEM leukemia): 3.49 µM
- TGI (MDA-MB-435): 3.33 µM
- TGI (786-0 renal): 2.89 µM
- TGI (OVCAR-4 ovarian): 3.25 µM
- TGI (NCI-H23 lung): 3.35 µM
- TGI (HOP-92 NSCLC): 3.08 µM

SMILES: CC(C)/C(Cl)=N\OC(=O)Nc1cccc(Cl)c1
- TGI (DU-145 prostate): 51.2 µM
- TGI (NCI/ADR-RES ovarian): > 57 µM
- TGI (EKVX NSCLC): 31.7 µM
- TGI (LOX IMVI melanoma): 8.71 µM
- TGI (SF-295 CNS): > 58.9 µM
- TGI (SF-539 CNS): 36.8 µM
- TGI (MDA-N): 28.6 µM
- TGI (HCT-15 colon): 31.3 µM
- TGI (A498 renal): 33.2 µM
- TGI (SR leukemia): 7.22 µM
- TGI (ACHN renal): 18.4 µM
- TGI (SNB-19 CNS): > 100 µM
- TGI (UACC-62 melanoma): 46.3 µM
- TGI (MOLT-4 leukemia): 7.88 µM
- TGI (SK-MEL-5 melanoma): 26.6 µM
- TGI (SK-OV-3 ovarian): > 58.2 µM
- TGI (SNB-75 CNS): 33.2 µM
- TGI (SN12C renal): 32.4 µM
- TGI (OVCAR-8 ovarian): 29.4 µM
- TGI (OVCAR-5 ovarian): 18.3 µM
- TGI (SK-MEL-28 melanoma): 35.4 µM
- TGI (NCI-H226 lung): 38.9 µM
- TGI (UACC-257 melanoma): 26.8 µM
- TGI (SF-268 CNS): 47.2 µM
- TGI (SK-MEL-2 melanoma): 30 µM
- TGI (OVCAR-3 ovarian): 10.8 µM
- TGI (COLO 205 colon): 4.61 µM
- TGI (MDA-MB-231 breast): 30.3 µM
- TGI (MCF7 breast): 32 µM
- TGI (M14 melanoma): 11 µM
- TGI (MALME-3M melanoma): 24.1 µM
- TGI (RPMI-8226 leukemia): 25 µM
- TGI (TK-10 renal): 28.6 µM
- TGI (K-562 leukemia): 4.7 µM
- TGI (SW-620 colon): 9.83 µM
- TGI (A549 NSCLC): 35.7 µM
- TGI (NCI-H460 lung): 18.6 µM
- TGI (UO-31 renal): 33.3 µM
- TGI (U251 CNS): 34.4 µM
- TGI (HT29 colon): 35.1 µM
- TGI (NCI-H522 lung): 3.33 µM
- TGI (T-47D breast): 68.5 µM
- TGI (KM12 colon): 31.6 µM
- TGI (HL-60(TB) leukemia): 3.3 µM
- TGI (PC-3 prostate): 29.7 µM
- TGI (HCT-116 colon): 36.2 µM
- TGI (IGROV1 ovarian): 35 µM
- TGI (HCC-2998 colon): 31.7 µM
- TGI (RXF 393 renal): 32.5 µM
- TGI (CAKI-1 renal): 34.8 µM
- TGI (CCRF-CEM leukemia): 5.05 µM
- TGI (786-0 renal): 29.1 µM
- TGI (OVCAR-4 ovarian): 27 µM
- TGI (HOP-62 NSCLC): > 86.1 µM
- TGI (NCI-H23 lung): 34 µM
- TGI (HS 578T breast): 72.8 µM
